Measured values from US11541050B2, “Pyrimidine derivatives for the treatment of viral infections” (JANSSEN SCIENCES IRELAND UC, priority 2011, dated 2023).

Tests used:
Type in all cases: cell-based
Parameters in all cases: unit not given here
[1] = tested on: human TLR8 mutant sequence comprising a deletion in the second leucine-rich repeat; experiment: TLR8 cellular NFκB-luc reporter assay, mutant TLR8 with deletion in the second leucine-rich repeat; details: lowest effective concentration
Procedure: The ability of compounds to activate human TLR7 and/or TLR8 was assessed in a cellular reporter assay using HEK293 cells transiently transfected with a TLR7 or TLR8 expression vector and NFκB-luc reporter construct. In one instance the TLR expression construct expresses the respective wild type sequence or a mutant sequence comprising a deletion in the second leucine-rich repeat of the TLR.
Briefly, HEK293 cells were grown in culture medium (DMEM supplemented with 10% FCS and 2 mM Glutamine). For transfection of cells in 10 cm dishes, cells were detached with Trypsin-EDTA, transfected with a mix of CMV-TLR7 or TLR8 plasmid (750 ng), NFκB-luc plasmid (375 ng) and a transfection reagent and incubated for 48 hours at 37° C. in a humidified 5% CO2 atmosphere. […] Thirty microliters of cells were then dispensed into each well in 384-well plates, where 10 μL of compound in 4% DMSO was already present. Following 6 hours incubation at 37° C., 5% CO2, the luciferase activity was determined by adding 15 μl of Steady Lite Plus substrate (Perkin Elmer) to each well and readout performed on a ViewLux ultraHTS microplate imager (Perkin Elmer). Dose response curves were generated from measurements performed in quadruplicates.

[2] = molecular target: T1, human TLR7 (wild type sequence) (Homo sapiens, UniProt Q9NYK1); experiment: TLR7 cellular NFκB-luc reporter assay, wild type TLR7; details: lowest effective concentration, wild type TLR7
T1 construct: expressed in transfected cells; host or cells: HEK293
T1 sequence (Q9NYK1 27-1049): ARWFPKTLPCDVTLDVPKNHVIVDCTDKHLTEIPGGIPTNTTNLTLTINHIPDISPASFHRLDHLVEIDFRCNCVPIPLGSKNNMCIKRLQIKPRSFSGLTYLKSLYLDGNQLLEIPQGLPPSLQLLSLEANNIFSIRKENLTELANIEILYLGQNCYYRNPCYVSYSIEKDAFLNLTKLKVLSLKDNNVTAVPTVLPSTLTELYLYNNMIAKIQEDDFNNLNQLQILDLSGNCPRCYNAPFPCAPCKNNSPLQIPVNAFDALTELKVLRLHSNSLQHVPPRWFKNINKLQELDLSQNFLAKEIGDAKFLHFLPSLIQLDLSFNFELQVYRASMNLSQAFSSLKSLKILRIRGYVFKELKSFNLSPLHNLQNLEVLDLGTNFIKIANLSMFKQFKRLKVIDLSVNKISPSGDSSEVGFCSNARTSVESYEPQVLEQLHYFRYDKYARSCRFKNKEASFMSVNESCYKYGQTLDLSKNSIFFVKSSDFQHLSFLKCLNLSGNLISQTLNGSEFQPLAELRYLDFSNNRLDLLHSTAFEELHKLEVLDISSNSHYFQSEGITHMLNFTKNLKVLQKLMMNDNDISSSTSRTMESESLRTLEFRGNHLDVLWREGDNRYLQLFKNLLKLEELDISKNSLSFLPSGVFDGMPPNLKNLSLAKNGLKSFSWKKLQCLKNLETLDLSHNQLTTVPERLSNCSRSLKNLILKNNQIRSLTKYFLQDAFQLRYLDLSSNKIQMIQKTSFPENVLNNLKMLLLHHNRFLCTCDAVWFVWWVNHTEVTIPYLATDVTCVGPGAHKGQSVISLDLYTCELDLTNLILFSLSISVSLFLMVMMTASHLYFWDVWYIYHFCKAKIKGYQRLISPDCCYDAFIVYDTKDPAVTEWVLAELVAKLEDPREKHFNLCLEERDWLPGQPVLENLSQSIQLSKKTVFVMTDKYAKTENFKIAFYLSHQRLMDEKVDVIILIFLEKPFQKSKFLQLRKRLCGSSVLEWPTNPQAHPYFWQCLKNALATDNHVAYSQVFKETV
Method in brief: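 NFκB-driven luciferase in HEK293 transiently expressing TLR7 or TLR8, wild type or mutant lacking part of the second LRR; 6 h compound exposure; lowest effective concentration reported.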

[3] = tested on: human TLR7 mutant sequence comprising a deletion in the second leucine-rich repeat; experiment: TLR7 cellular NFκB-luc reporter assay, mutant TLR7 with deletion in the second leucine-rich repeat; details: lowest effective concentration
Method in brief: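 HEK293 cells transiently co-transfected with CMV-driven mutant TLR7 or TLR8 plasmid plus NFκB-luc reporter, cultured 48 h at 37 °C, then exposed to compound for 6 h at 37 °C, 5% CO2. Luciferase luminescence measured; dose-response curves from quadruplicates.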

SMILES	TLR8-dIRR2_LEC [1]	TLR7-wt_LEC [2]	TLR7-dIRR2_LEC [3]
CCC[C@H](C)Nc1nc(N)ncc1OCc1cn2ccccc2n1 [Compound 251]	0.087	0.164	0.556
CCC[C@@H](CCO)Nc1nc(N)ncc1O[C@H]1CCc2c(Cl)ccnc21 [Compound 284]	2.150	9.910	10.300
CCC[C@@H](CO)Nc1nc(N)ncc1OCc1cc(C)nn1C [Compound 254]	0.364	1.770	0.467
CCC[C@@H](C)Nc1nc(N)ncc1OCc1cn2ccccc2n1 [Compound 253]	6.230	12.760	>25
CCCCNc1nc(N)ncc1OCc1ccc2cccnc2n1 [Compound 236]	0.031	0.241	0.333
CCCC[C@@H](CCO)Nc1nc(N)ncc1OCCOC [Compound 266]	0.557	1.070	1.890
CCCCNc1nc(N)ncc1OCC(CC)OC (stereo not drawn) [Compound 288]	14.890	>25	10.200
CCCC[C@@H](CO)Nc1nc(N)ncc1OCc1cc(C)n(C)n1 [Compound 255]	0.315	0.552	0.515
CCCC[C@@H](CO)Nc1nc(N)ncc1OCc1cccnc1 [Compound 274]	0.357	1.140	0.303
CCC[C@@H](CCO)Nc1nc(N)ncc1OCc1ccccn1 [Compound 293]	0.088	0.197	0.530
CCCC[C@@H](C[C@@H](C)O)Nc1nc(N)ncc1OC [Compound 300]	0.475	1.740	0.720
CCC[C@@H](CCO)Nc1nc(N)ncc1OCc1cc(C)nn1C [Compound 264]	0.087	0.215	0.489
CCCC[C@@H](CO)Nc1nc(N)ncc1OCCCc1ccc2c(c1)OCO2 [Compound 228]	0.112	1.410	1.510
